Consider one compound from US9963452B2, “Methods, compounds, and compositions for inhibition of ROS” (AUGUSTA PHARMACEUTICALS INC., priority 2013, dated 2018).

pEC50: −log10 of the molar value.

The subject of the assay is glioblastoma cell lines. The assay can be described thus: Glioblastoma growth inhibition by Xalkori (cell-based assay, FIG. 3). The settings on record: depending on the cell line (FIG. 3). The protocol: Five tumor-derived cell lines were treated with the ROS inhibitor compounds and cell survival was monitored to determine the cancer prohibition effects of the compounds. The cell lines included HeLa, a cervical cancer cell line, and four glioblastoma cell lines U138, U87, LN18, and U118. The basic protocol for the in-vitro cell survival assay is the same for all five cell lines. In particular, the cells were seeded in 96-well plates at 2-5×10^3 cells/well (cell line dependent) in culture medium. The cells were grown for 2 days before the compounds were dissolved in DMSO and added to final concentrations of 100 uM, 10 uM, or 1 uM (DMSO final concentration 0.5%). The cell culture was then assayed one day after the addition of the compounds. The assay used Alamar blue as a redox-sensitive dye that interrogates mitochondrial fitness of cells, and these assays provided a readout for cell proliferation and viability. The raw values were normalized to an average of several vehicle control wells and are presented as percent decrease in proliferation/viability, which is converted to half maximal effective concentration (EC50) values.
FIG. 3: Potency, selectivity and growth inhibitory effects of Xalkori in in vitro kinase and cell-based assays. […] U138 and U118 have been documented to express aberrant ROS (FIG-ROS fusion). […]

As for `C[C@@H](Oc1cc(-c2cnn(C3CCNCC3)c2)cnc1N)c1c(Cl)ccc(F)c1Cl` [Crizotinib], the pEC50 (as a rule, the EC50 on a negative log10 scale, so that one unit is a factor of ten) was 7.70 to 7.92.
